Molecular target: T1, Tyrosine-protein kinase receptor UFO (Homo sapiens, UniProt P30530)
T1 sequence (P30530 whole entry): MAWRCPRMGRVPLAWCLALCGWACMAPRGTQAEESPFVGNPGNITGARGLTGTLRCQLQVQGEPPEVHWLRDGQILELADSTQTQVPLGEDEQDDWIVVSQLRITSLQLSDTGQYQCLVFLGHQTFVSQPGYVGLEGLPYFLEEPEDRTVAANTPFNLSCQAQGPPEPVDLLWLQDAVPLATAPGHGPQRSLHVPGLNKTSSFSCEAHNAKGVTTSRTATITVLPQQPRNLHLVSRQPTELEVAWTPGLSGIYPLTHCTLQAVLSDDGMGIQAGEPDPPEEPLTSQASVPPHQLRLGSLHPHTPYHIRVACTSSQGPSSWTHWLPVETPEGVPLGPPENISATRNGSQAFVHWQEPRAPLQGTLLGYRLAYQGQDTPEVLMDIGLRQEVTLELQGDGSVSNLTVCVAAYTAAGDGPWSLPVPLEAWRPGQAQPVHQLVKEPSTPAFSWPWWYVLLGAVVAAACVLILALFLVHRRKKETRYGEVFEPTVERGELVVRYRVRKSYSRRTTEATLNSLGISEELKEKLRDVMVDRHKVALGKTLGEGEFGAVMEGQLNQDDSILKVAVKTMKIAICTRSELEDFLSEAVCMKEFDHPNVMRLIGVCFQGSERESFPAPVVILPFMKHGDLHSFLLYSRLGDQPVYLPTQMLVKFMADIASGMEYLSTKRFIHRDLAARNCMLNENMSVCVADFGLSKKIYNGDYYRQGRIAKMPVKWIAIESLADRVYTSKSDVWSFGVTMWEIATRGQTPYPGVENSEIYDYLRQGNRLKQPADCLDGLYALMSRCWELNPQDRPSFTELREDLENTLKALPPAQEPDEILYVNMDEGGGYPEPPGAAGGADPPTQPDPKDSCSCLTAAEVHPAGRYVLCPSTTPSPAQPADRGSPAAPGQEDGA
Test: Inhibition of AXL (unknown origin)

## COc1cc2ncnc(Oc3ccc(NC(=O)c4c5n(n(-c6ccccc6)c4=O)CCCC5)cc3)c2cc1OC
  IC50: 44 nM

Reference: BindingDB's records for PubMed 38714043 (Sichuan University)
